Experimental data published in US20240043474A1, “ANTI-INFLAMMATORY PEPTIDE FOR PREVENTING OR TREATING ATOPIC DERMATITIS” (AJOU UNIVERSITY INDUSTRY-ACADEMIC COOPERATION FOUNDATION, priority 2020, published 2024).
“Also recorded” adds a separate entry of the source. Square brackets hold non-standard residues; d marks the D form. Primed or numbered codes have the meaning given here. Ends that are not written are not given here. Peptide text beside a SMILES is read from it. * marks the point of attachment. PEG2′ = N-terminal cap of 2 polyethylene glycol units (PEG2); PEG4′ = N-terminal cap of 4 polyethylene glycol units (PEG4); 5FAM = O=C1OC2(c3ccc(O)cc3Oc3cc(O)ccc32)c2ccc(C(=O)*)cc21; Butanoyl(4-maleimido) = O=C1C=CC(=O)N1CCCC(=O)*; Stearoyl = CCCCCCCCCCCCCCCCCC(=O)*; Palmitoyl = CCCCCCCCCCCCCCCC(=O)*; Myristoyl = CCCCCCCCCCCCCC(=O)*; Hexanoyl = CCCCCC(=O)*

Columns and labels:
peritoneal macrophages [1] = assay: Intracellular expression and frequency of peptide in cultured peritoneal macrophages, confocal microscopy and FACS; assay type: cell-based, mouse; settings: 1 μg/mL, FIG. 8
Description: Peritoneal macrophages were isolated from the same mouse used in FIG. 7 to culture the cell suspension. Anti-CD3 (1 μg/ml) antibodies were plated on a petri dish at room temperature for 3 hours and cells were inoculated (5×10^5 cells/well). After 1 hour, anti-CD28 antibodies (1 μg/ml), IL-23 (20 ng/ml), IL-6 (20 ng/ml), and TGF-β (5 ng/ml) were added.

peritoneal macrophages [2] = assay: Fluorescence-expressing peritoneal macrophages after intraperitoneal fluorescently labeled peptide, FACS; assay type: in vivo, mouse
lymph node cells = assay: Intracellular expression and frequency of peptide in cultured lymph node cells, confocal microscopy and FACS; assay type: cell-based, mouse; settings: 1 μg/mL, FIG. 7
[3] = Skin tissue penetrability, confocal microscopy of skin after topical fluorescent peptide; assay type: in vivo, mouse; settings: 1 μg applied to skin of ICR mice, with or without needle scratch, skin collected 2 hours later; FIG. 5
Description: To determine the skin tissue penetration of the A900 peptide, peptide A900 peptide (A900-FAM) with fluorescent substance FAM (Carboxyfluorescein) attached to the N-terminus of A900 peptide was applied to the skin of ICR 4-week-old mice.

IL-4, IL-31, IL-17 = assay: Cytokine expression in spleen by real-time PCR after treating atopic skin lesions with external preparation; assay type: in vivo, mouse; settings: external preparation on skin lesions, FIG. 9
[4] = test system: IL-4R alpha, CCR3 and CTLA-4 positive cells; assay: FACS of splenocytes from atopic dermatitis mice after external preparation for five days; assay type: in vivo, mouse; settings: FIG. 2
Description: In order to identify whether the peptide that has the effect of alleviating atopic dermatitis inflammation has an immunoregulatory function, splenocytes and peripheral blood leukocytes (PBLs) were separately isolated after administrating the external preparation into the mouse skin for five days, surface staining was performed with antibodies for FACS, and then the frequency of cells expressing interleukin 4 receptor (IL-4R) alpha, C—C chemokine receptor type 3 (CCR3), and cytotoxic T-lymphocyte-associated protein 4 (CTLA-4) was analyzed via flow cytometry. Dupixent was administered in a form of a peritoneal injection and tested as a control group.

[5] = test system: IL-13, IL-4, TNF alpha, IL-17; assay: Cytokines in mice having atopic dermatitis after peptide A900 treatment (summary statement); assay type: in vivo, mouse
IL-4 = IL-4 expression in splenocytes of treated atopic dermatitis mice by real-time PCR; assay type: in vivo, mouse; settings: FIG. 4
[6] = test system: CD11b+Ly6G+, CD83+ and Foxp3+ positive cells; assay: FACS of peripheral blood leukocytes (PBLs) from atopic dermatitis mice after peptide administration; assay type: in vivo, mouse; settings: FIG. 3
[7] = test system: cells secreting atopy associated cytokines; assay: In vivo FACS of intracellular cytokines in PBLs after external preparation for 5 days in atopic mice; parameters: species or system mouse; settings: external preparation 1 μg/ml for 5 days, compared to ADC mice given PBS, FIG. 13
Description: (§1) After removing hair from 6-week-old Balb/c male mice, application was performed with 1% DNCB 1 time/day for 2 days and 0.5% DNCB 1 time/day for 3 days for a total of 5 days, to induce atopic symptoms (N=5-8 mice for each group). After administering the external preparation to mouse skin for 5 days in mice having atopic symptoms, peripheral blood leukocytes (PBLs) were isolated and the frequency of each cytokine expressing cell was analyzed and compared after intracellular staining with antibodies for FACS. The control group was given with an anti-inflammatory moisturizing cream external preparation (5 times) and administered with an anti-mouse IL-4 receptor antibody (100 ug/mouse) intraperitoneal injection (1 time). A900, A900M, A900MAL, and A900PEG4 were used for peptides, and the concentration was set to 1 μg/ml. Cytokines were subjected to intracellular staining to measure the frequency of stained cell population.

IL-4, IL-13, IL-21 = assay: Real-time PCR of cytokines in splenocytes and lymph node cells from atopic mice cultured with peptides; assay type: cell-based, mouse; settings: 24 hours, compared to untreated control (ADC), FIGS. 11 and 12
[8] = test system: atopic dermatitis induced with dinitrochlorobenzene (DNCB); assay: DNCB-induced atopic dermatitis mouse model, peptide applied as external preparation; assay type: in vivo; settings: FIG. 1
Description: Experimental mice were bred in a 12-hour light/dark cycle, free of pathogens at a constant temperature of 23° C. and 55% humidity. After an adaptation period of several days, DNCB-induced atopic dermatitis was induced in mice by the following method.
First, the hair in the dorsal skin area was carefully shaved using a hair removal cream, and then 100 μL of 1% dinitrochlorobenzene (DNCB) dissolved in acetone was locally treated to exposed skin once a day for 3 days to sensitize the skin and induce atopic dermatitis.
A positive control group obtained by treating mice having atopic dermatitis with anti-inflammatory moisturizing cream (Control Cream) and Dupixent injection which is a therapeutic agent for atopic dermatitis was compared with a peptide (A900 peptide) treated group.

[9] = test system: CD4 T cells secreting atopy associated cytokines; assay: Ex vivo FACS of PBMCs from atopic mice cultured with peptides; assay type: cell-based, mouse; settings: 3 μg/ml, 24 hours, compared to untreated control group (ADC), FIG. 10
Description: After removing hair from 6-week-old Balb/c male mice, application was performed with 1% DNCB 1 time/day for 2 days and 0.5% DNCB 1 time/day for 3 days for a total of 5 days to induce atopic symptoms. PBMCs were isolated from atopic mice, seeded in 24 well plates, treated with peptides, cultured for 24 hours, and then analyzed by FACS. PBMCs isolated from normal mice and atopy-induced mice were used as control groups, and peptides were treated to PBMC cultures isolated from atopic mice. Dupixent was used for the peptide control group (Dupixent 5 μg/ml). A900, A900P, A900H, A900S, A900M, A900MAL, A900PEG2, and A900PEG4 were used as the peptides, and the concentration was set to 3 μg/ml. Surface was stained with anti-CD4 antibodies, cytokines were subjected to intracellular staining, and the frequency of double stained population was measured.

[10] = test system: CD4 cells secreting IL-13 and IL-31; assay: In vivo FACS of cytokine-expressing CD4 cells in PBLs after external preparation in atopic mice; parameters: species or system mouse; settings: external preparation 1 μg/ml for 5 days, FIG. 14
Description: as §1
Peripheral blood leukocytes (PBLs) isolated from the same mice as in FIG. 13 were isolated and subjected to CD4 surface staining and intracellular staining with antibodies for FACS to analyze and compare the frequency of each cytokine-expressing CD4 cell.

[11] = external preparation for five days
[12] = PBLs of mice having atopic dermatitis

Molecule	expression of IL-4 (IL-4, IL-31, IL-17)	expression of IL-17 (IL-4, IL-31, IL-17)	expression of IL-31 (IL-4, IL-31, IL-17)	IL-4 expression (IL-4, IL-13, IL-21)	IL-13 expression (IL-4, IL-13, IL-21)	IL-21 expression (IL-4, IL-13, IL-21)	frequency of CD4 T cells secreting atopy associated cytokines [9]	further results
CC[C@H](C)[C@H](NC(=O)[C@H](CCC(=O)O)NC(=O)CNC(=O)[C@H](CS)NC(=O)[C@H](CCCNC(=N)N)NC(=O)[C@H](CC(C)C)NC(=O)[C@@H](NC(=O)[C@@H](NC(=O)[C@@H](NC(=O)[C@H](CS)NC(=O)CNC(=O)c1ccc2c(c1)C(=O)OC21c2ccc(O)cc2Oc2cc(O)ccc21)C(C)C)[C@@H](C)O)C(C)C)C(=O)N[C@H](C(=O)O)C(C)C [A900-FAM] (5FAM-GCVTVLRCGEIV-OH)								cell frequency expressing peptide (peritoneal macrophages [1]; 1-hour culture group): 10%; cell frequency expressing peptide (peritoneal macrophages [1]; 24-hour culture group): 15%; fluorescence-expressing cells (peritoneal macrophages [2]; 3 μg into abdominal cavity, after 3 hours, FIG. 6): barely detected; peritoneal macrophages expressing fluorescence (peritoneal macrophages [2]; 3 μg into abdominal cavity, at 30 minutes, FIG. 6): 50%; peritoneal macrophages expressing fluorescence (peritoneal macrophages [2]; 3 μg into abdominal cavity, at 1 hour, FIG. 6): 23%; time the peptide is maintained in the cell (peritoneal macrophages [2]; 3 μg intraperitoneally, cells in the abdominal cavity): more than 1 hour; cell frequency expressing peptide (lymph node cells; 1-hour treated group): 20%; cell frequency expressing peptide (lymph node cells; 24-hour treated group): 40%; skin tissue penetration (fluorescence in skin tissue) [3]: fluorescence was detected in both the epidermis and dermis
GCESEILCGEIV [A907]	inhibited	inhibited	inhibited					
GCETELRCGEIV [A903]	inhibited	inhibited	inhibited					
GCETVLRCGEIV [A901]	inhibited	inhibited	inhibited					
GCLRCGEIV [A914]	inhibited	inhibited	inhibited					
GCVTELRCGEIV [A902]	inhibited	inhibited	inhibited					
GCVTVCGEIV [A911]	inhibited	inhibited	inhibited					
GCVTVLRCGEIV [A900]	inhibited	inhibited	inhibited	inhibited	inhibited	inhibited	inhibited	degree of inhibition of IL-4R alpha, CCR3 and CTLA-4 positive cells compared with control administered group ([4]; control Dupixent peritoneal injection): more effective than that of the control administered group; frequency of CCR3 positive cells [4, 11]: tended to be inhibitive; also recorded: decreased; frequency of CTLA-4 positive cells [4, 11]: tended to be inhibitive; also recorded: decreased; frequency of IL-4R alpha positive cells [4, 11]: tended to be inhibitive; also recorded: decreased; cytokines such as IL-13, IL-4, TNF alpha, and IL-17 [5]: reduced; IL-4 expression (IL-4): inhibited; frequency of CD11b+Ly6G+ positive cells [6, 12]: inhibited; frequency of CD83+ positive cells [6, 12]: inhibited; frequency of Foxp3+ positive cells [6, 12]: increased; degree of inhibition of CD11b+Ly6G+ and CD83+ positive cells compared with control administered group ([6]; PBLs): more effective than in the control administered group; frequency of cells secreting atopy associated cytokines [7]: inhibited; atopic dermatitis symptoms ([8]; external preparation applied to mice with DNCB-induced atopic dermatitis): alleviated; speed of appearance of the effect compared with control group ([8]; versus Control Cream / Dupixent injection positive control): faster than the control group
Hexanoyl-GCVTVLRCGEIV (cysteine pairing not given here) [A900H]				inhibited	inhibited	inhibited		
Maleimidobutyrol-GCVTVLRCGEIV ({Butanoyl(4-maleimido)}-GCVTVLRCGEIV; cysteine pairing not given here) [A900MAL]				inhibited	inhibited	inhibited	inhibited	frequency of CD4 cells secreting IL-13 [10]: inhibited; frequency of CD4 cells secreting IL-31 [10]: inhibited; frequency of cells secreting atopy associated cytokines [7]: inhibited
Myristoyl-GCVTVLRCGEIV (cysteine pairing not given here) [A900M]				inhibited	inhibited	inhibited	inhibited	frequency of cells secreting atopy associated cytokines [7]: inhibited
PEG2-GCVTVLRCGEIV ([PEG2′]GCVTVLRCGEIV; cysteine pairing not given here) [A900PEG2]				inhibited	inhibited	inhibited		
PEG4-GCVTVLRCGEIV ([PEG4′]GCVTVLRCGEIV; cysteine pairing not given here) [A900PEG4]				inhibited	inhibited	inhibited	inhibited	frequency of cells secreting atopy associated cytokines [7]: inhibited
Palmitoyl-GCVTVLRCGEIV (cysteine pairing not given here) [A900P]				inhibited	inhibited	inhibited	inhibited	
Stearoyl-GCVTVLRCGEIV (cysteine pairing not given here) [A900S]							inhibited	
